In data set [1] the test system is Aldh3a1. Nature of the data set: mRNA expression of Aldh3a1 in Hepa1c1c7 cells (real-time PCR). The data set is classed as cell-based, mouse. The following applies: 24 hours, SF 1 or 3 μM, TP-225 0.003 or 0.01 μM, BNF 0.3 or 1 μM. A general note: Quantitative PCR measures a nucleic acid by following its amplification.
Experimental: Total RNA was extracted from Hepa1c1c7 cells that had been exposed to serial dilutions of inducers for 24 h, or from RNA-stabilized tissues (stored in TRizol) from mice, followed by reverse transcription into cDNA. The cDNA was subjected to quantitative real-time PCR analysis by using SYBR Green fluorescence with 7000 Sequence Detection System. […] Relative expressions of individual mRNAs for ALDH were normalized to β-actin as an endogenous control, and the expression rate was calculated using the comparative ΔΔCt method.
Data set [2] has as its system ALDH. Nature of the data set: Total ALDH activity in Hepa1c1c7 cell homogenates (propionaldehyde substrate, fluorimetric). It counts as cell-based, mouse. As for the experimental part:
To determine total ALDH activity, Hepa1c1c7 or MEF cells were plated into 6-cm plates at 6.0×10^5 or 1.2×10^6 cells/plate, incubated for 24 h at 37° C. in a 5% CO2 atmosphere, and then treated with serial dilutions of inducers. The inducers were dissolved in acetonitrile or DMSO and added to medium so that final concentrations of the solvents was less than 0.5 or 0.1% v/v, respectively. […] The assay was started by addition of 10 μL of 90 mM propionaldehyde, bringing the total volume to 200 μL. […] Blank reaction rates without propionaldehyde were also determined.

Data set [3] relates to NQO1. In words: NQO1 activity in Hepa1c1c7 cells (Prochaska assay, menadione substrate). The data set is classed as cell-based, mouse. The following applies: 48 h. Here is the method: The lysates of Hepa1c1c7 cells which were plated in 96-well plates at 10^4 cells per well, grown for 24 h, and then exposed to serial dilutions of inducers for 48 h.
The next data set has as its system ALDH in Nrf2−/− MEFs. Particulars: stepwise concentration of SF, 48 h. Here is the method: (§1) All cell lines were grown in 5% CO2 at 37° C. Murine hepatoma cell line, Hepa1c1c7 was cultured in α-MEM supplemented with 10% (v/v) heat inactivated FBS. Mouse embryo fibroblasts (MEFs) derived from day 13.5 embryos of wild-type or Nrf2-knockout C57BL/6 mice were cultured in Iscoves Modified Dulbecco's Medium (with L-glutamine) supplemented with human recombinant epidermal growth factor (10 ng/mL), 1× insulin/transferring/selenium, and 10% (v/v) heat-inactivated FBS.
(§2) To determine total ALDH activity, Hepa1c1c7 or MEF cells were plated into 6-cm plates at 6.0×10^5 or 1.2×10^6 cells/plate, incubated for 24 h at 37° C. in a 5% CO2 atmosphere, and then treated with serial dilutions of inducers. The inducers were dissolved in acetonitrile or DMSO and added to medium so that final concentrations of the solvents was less than 0.5 or 0.1% v/v, respectively. […] ALDH activity was measured fluorimetrically in 96-well plates (white-walled) by modification of the method of Koivula et al. (1975). […] The initial velocity of NADH generation was measured (λex 340 nm and λem 460 nm) at 25° C. for 10 min in a micro-plate fluorometer. Blank reaction rates without propionaldehyde were also determined. The ALDH velocity was normalized to the protein concentration and expressed as a change in fluorescent units per min per mg of protein.

The next data set relates to ALDH in WT MEFs. Particulars: stepwise concentration of SF, 48 h. As for the experimental part: as §1, §2
Data set [4] relates to ALDH. The following applies: 1 week; for Cytosolic/microsomal and mitochondrial ALDH activities, fold above control: glandular-stomach. Here is the method: (§3) All animal experiments were performed in compliance with National Institute of Health Guidelines and those of Animal Care and Use Committee of the Johns Hopkins University. […] After 1 week on these diets, mice were euthanized and their liver, forestomach, glandular stomach, and upper small intestine were harvested, frozen in liquid nitrogen, and stored at −80° C. until analyzed. A small portion of each tissue was stored in RNA stabilizing solution at 4° C. until total RNA extraction.
To determine total ALDH activity, Hepa1c1c7 or MEF cells were plated into 6-cm plates at 6.0×10^5 or 1.2×10^6 cells/plate, incubated for 24 h at 37° C. in a 5% CO2 atmosphere, and then treated with serial dilutions of inducers. The inducers were dissolved in acetonitrile or DMSO and added to medium so that final concentrations of the solvents was less than 0.5 or 0.1% v/v, respectively. After 48 h of treatment, cells were washed twice with PBS, scraped from the plates, and homogenized in micro-homogenizers at 4° C. The homogenates were centrifuged at 5,000×g for 15 min at 4° C. and the supernatant fractions were collected. ALDH activity was measured fluorimetrically in 96-well plates (white-walled) by modification of the method of Koivula et al. (1975). The assay mixture (190 μL) contained 70 mM sodium pyrophosphate buffer (pH 8.0), 1.67 mM pyrazole, 1.33 mM NAD, and supernatant fraction. The assay was started by addition of 10 μL of 90 mM propionaldehyde, bringing the total volume to 200 μL. The initial velocity of NADH generation was measured (λex 340 nm and λem 460 nm) at 25° C. for 10 min in a micro-plate fluorometer. Blank reaction rates without propionaldehyde were also determined. The ALDH velocity was normalized to the protein concentration and expressed as a change in fluorescent units per min per mg of protein.
To determine ALDH activities of cytosolic/microsomal and mitochondrial fractions individually, cells or harvested tissues were homogenized at 4° C. in 10 mM Tris-HCl (pH 7.4) containing 0.25 M sucrose and 1 mM 2-mercaptoethanol and centrifuged at 750×g for 15 min to remove nuclei and cell debris. Supernatant fractions were then centrifuged twice at 12,000×g for 20 min to obtain the cytosolic/microsomal and the precipitated mitochondrial fractions. Mitochondrial fractions were suspended in 0.25 M sucrose, diluted with one-half volume of 1% sodium bicarbonate containing 1% sodium deoxycholate (w/v), and sonicated in a Branson Sonicator at 4° C. for five (5) 2-minute periods for a total of 10 min before assays.

Another data set relates to Aldh1a1. The following applies: liver, SF diet 1 week. As for the experimental part: as §3
(§4) Total RNA was extracted from Hepa1c1c7 cells that had been exposed to serial dilutions of inducers for 24 h, or from RNA-stabilized tissues (stored in TRizol) from mice, followed by reverse transcription into cDNA. The cDNA was subjected to quantitative real-time PCR analysis by using SYBR Green fluorescence with 7000 Sequence Detection System. All primers used in this study were designed based on previous reports. Relative expressions of individual mRNAs for ALDH were normalized to β-actin as an endogenous control, and the expression rate was calculated using the comparative ΔΔCt method.

In the next data set the test system is Aldh2. Particulars: liver, SF diet 1 week. As for the experimental part: as §3, §4
Data set [5] deals with Aldh3a1. The following applies: SF diet 1 week. Here is the method: as §3, §4
The conditions of data set [6]: 5 or 20 μmol SF/3 g diet/day, 1 week. As for the experimental part:
as §3

Data set [7] has as its system NQO1. Particulars: liver, both parts of stomach, upper intestine; high dose 20 μmol SF/3 g diet/day, 1 week. Here is the method: as §3
For data set [8] the following is noted: 20 μmol SF/3 g diet/day 1 week, then 2.0 g/kg ethanol oral. Here is the method: (§5) After fasting overnight, they were gavaged with 35% (v/v) ethanol solution at a dose of 2.0 g/kg. Before, and 0.5, 1, 2, 3, 4, and 6 h after administration of ethanol, 20 μL of blood were collected by nicking the tail vein. The mice were then euthanized and their blood, liver, stomach and upper intestine were collected.
(§6) Blood ethanol and acetaldehyde levels in mice were determined enzymatically by modification of the method of Tottmar et al. (Tottmar 1978). Whole blood samples (20 μL) were obtained by repeated incisions of mouse tail veins. The blood was immediately mixed with 200 μL of 4% (v/v) perchloric acid (PCA) in sealed tubes at 4° C., incubated for 10 min, and then centrifuged at 3000×g for 10 min. The pH values of the supernatant fractions were adjusted to 7.5-8.0 by adding 20 μL of 3 M K2CO3 in new tubes. After removing precipitated KClO4 by centrifugation at 3000×g for 10 min, supernatant fractions were stored in sealed tubes at 4° C. until assayed.

The procedure of data set [9]: as §5, §6
Determination of acetaldehyde was performed in 10 mm quarts fluorescence cuvettes in a final volume of 2.33 mL assay mixture containing of assay mixture containing 50 mM sodium pyrophosphate (pH 8.8), 0.1 mM pyrazole, 0.1 mM NAD and 0.2 units/mL of purified ALDH (potassium activated from baker's yeast) with a luminescence spectrophotometer. Before and 5 min after addition of 170 μL of the supernatant, intensities were monitored (λex: 340 nm and λem: 460 nm). The acetaldehyde level in blood was calculated from change of intensity using acetaldehyde standard curve with range from 1.56 to 50 μM in blood. The standard curve was made by applying serial dilution of acetaldehyde to PCA treatment process same as blood.

The conditions of data set [10]: human research studies; cited from earlier work.
The test system of a further data set is glutathione. Particulars: intake of SF; cited from earlier work.
Where [11] appears, read: liver, high dose 20 μmol SF/3 g diet/day.

Consider four compounds from patent US20210401791A1, “METHODS AND COMPOSITIONS FOR REDUCING ALCOHOL TOXICITY” (THE JOHNS HOPKINS UNIVERSITY, priority 2011, published 2021).

“Also recorded” adds a separate entry of the source. Where two headings read alike, the source gives them in different places.

Take `O=c1cc(-c2ccccc2)oc2ccc3ccccc3c12` [BNF]: the “Aldh3a1 mRNA expression, fold increase” value with Aldh3a1 [1] is approximately 5 fold.
Turning to `CC1(C)CC[C@]2(C#N)CC[C@]3(C)[C@H](C(=O)C=C4[C@@]5(C)C=C(C#N)C(=O)C(C)(C)[C@@H]5CC[C@]43C)[C@@H]2C1` [TP-225], the “CD value (concentration required to double the enzyme activity) for induction of ALDH” value in the data set on ALDH [2] (Hepa1c1c7 cells, 48 h) came out at 0.0016 µM. The “CD value (concentration required to double the enzyme activity) for induction of NQO1” value in the data set on NQO1 [3] is 0.00038 µM. The “Aldh3a1 mRNA expression, fold increase” value with Aldh3a1 [1] was approximately 5 fold.
Regarding `Oc1ccc(C=Cc2cc(O)cc(O)c2)cc1` [resveratrol, reference compound], the “CD value (concentration required to double the enzyme activity) for induction of ALDH” value in the data set with ALDH [2] (Hepa1c1c7 cells, 48 h) was found to be 120.7 µM. For the same compound, in the data set with NQO1 [3], the “CD value (concentration required to double the enzyme activity) for induction of NQO1” value is more than 50 µM.
As to `C[S@@+]([O-])CCCCN=C=S` [SF, 1-isothiocyanato-4R-(methylsulfinyl)butane], the “Total ALDH activity, fold above control levels” value in the data set on ALDH [2] (3 μM SF, additional 6 hours after first 12 h) turned out to be 1.5 fold; with ALDH [2] (3 μM SF, additional 12 hours after first 12 h), 1.9 fold; in the data set on ALDH [2] (3 μM SF, additional 24 hours after first 12 h), 2.1 fold. In addition, the “Total ALDH activity vs control” value in the data set with ALDH [2] (3 μM SF, first 12 h) was “not increased”. Moreover, the “Concentration at which significant effects on total ALDH activity were observed” value in the data set with ALDH [2] (Hepa1c1c7 cells, 48 hours treatment) is not below 0.3 µM. Besides, the “Effect on total ALDH activity” value was “dramatically and dose dependently increased; also recorded: increased total ALDH activity in Hepa1c1c7 cells in a dose dependent manner” in the data set with ALDH [2] (Hepa1c1c7 cells, serial concentrations, 48 h); “altogether absent” in the data set on ALDH in Nrf2−/− MEFs; “increased in a dose dependent manner” in the data set with ALDH in WT MEFs. In the data set with ALDH [2] (time course measurement, treatment with SF), the “Treatment time after which total ALDH activity increased” value is 12 to 18 h. The “Aldh3a1 mRNA expression, fold increase” value with Aldh3a1 [1] is approximately 5 fold. The “Cytosolic/microsomal and mitochondrial ALDH activities, fold above control” value in the data set on ALDH [4] ((high) 20 μmol SF/3 g diet/day) is on record as 5.1 fold; with ALDH [4] ((low) 5 μmol SF/3 g diet/day) it was 4.1 fold. Further, the “Cytosolic/microsomal ALDH activity, fold increase” value in the data set with ALDH [4] (setting [11]) was 1.4 fold. Further, in the data set on ALDH [4] (setting [11]), the “Mitochondrial ALDH activity, fold increase” value amounted to 1.5 fold. Moreover, in the data set with Aldh1a1, the “Aldh1a1 expression level, fold increase” value stood at 2.5 fold. Besides, the “Aldh2 expression level, fold increase” value in the data set with Aldh2 came out at 1.8 fold. Besides, the “Aldh3a1 expression, fold increase” value with Aldh3a1 [5] (forestomach) is listed as 3 fold; with Aldh3a1 [5] (glandular stomach) it was 6.5 fold. In data set [6], the “Body weights vs control group” value was “no significant differences”. In addition, in [6], the “Food intakes vs control group” value is recorded as “no significant differences”. The “NQO1 activity, fold increase compared to control” value with NQO1 [7] was not above 2.2 fold. Further, in data set [8], the “AUC of blood ethanol vs control” value is recorded as “no significant difference”. In addition, in data set [8] (only in descending phase), the “Effect on blood ethanol level” value was “slightly affected”. In addition, in data set [9] (20 μmol SF/3 g diet/day 1 week, then 2.0 g/kg ethanol oral, control 83.8±6.1), the “AUC of blood acetaldehyde” value worked out at 54.5 ± 5.1 µmol·h/L. Also, in [9] (20 μmol SF/3 g/day 1 week, then 2.0 g/kg ethanol oral (FIG. 9)), the “Effect on blood acetaldehyde levels” value is recorded as “remarkably lowered”. Further, in [9] (SF-fed mice), the “Acetaldehyde elimination constant relative to control mice” value is on record as “roughly 2 times”. For the same compound, the “Prevention of increase in blood acetaldehyde level” value in data set [9] (ascending phase, 20 μmol SF/3 g diet/day 1 week, then 2.0 g/kg ethanol oral) is on record as 30%. Further, the “Elimination rate constant k of blood acetaldehyde” value in [9] (first order model, SF fed mice, control 0.21±0.02, p<0.01) stood at 0.40 ± 0.03 h⁻¹. In addition, in data set [9] (first order model, SF fed mice, control 28.62±2.1, NS), the “Initial blood level C0 of acetaldehyde” value amounted to 32.38 ± 2.4 µM. The “Adverse effects on administration” value in [10] is “not shown any significant adverse effects”. Also, the “Glutathione levels in liver” value with glutathione is recorded as “increased glutathione levels in liver”.
